The subject of one assay is HCT-116 cells. Kind of assay: MTT assay, cytotoxic activity against HCT-116. The class given is cell-based. The note with it: Homo sapiens, average of three separate determinations, SD shown. From the text:
Taking lead compound BC2021-104511-15i, Fruquintinib and Regorafenib as positive controls, the cytotoxic activity against HT-29, HCT-116, COLO-205 and FHC cell lines by MTT assay. Detailed operation could be found in our previous study.
In general terms: Formazan colour is commonly taken as a measure of viable cells.

For another assay, the target named is PDGFRβ (Homo sapiens, UniProt P09619). Kind of assay: Mobility shift assay, PDGFRβ. The note with it: mean of two independent experiments, SD shown. The class given is biochemical. How it is done: Kinase inhibitory activity against HGFR, MST1R, ABL, PDGFRβ, AXL, FLT3, RET, c-Src, and VEGFR-2 was evaluated by the mobility shift assay. Detailed operation could be found in our previous research.
Sequence of PDGFRβ (P09619 33-1106): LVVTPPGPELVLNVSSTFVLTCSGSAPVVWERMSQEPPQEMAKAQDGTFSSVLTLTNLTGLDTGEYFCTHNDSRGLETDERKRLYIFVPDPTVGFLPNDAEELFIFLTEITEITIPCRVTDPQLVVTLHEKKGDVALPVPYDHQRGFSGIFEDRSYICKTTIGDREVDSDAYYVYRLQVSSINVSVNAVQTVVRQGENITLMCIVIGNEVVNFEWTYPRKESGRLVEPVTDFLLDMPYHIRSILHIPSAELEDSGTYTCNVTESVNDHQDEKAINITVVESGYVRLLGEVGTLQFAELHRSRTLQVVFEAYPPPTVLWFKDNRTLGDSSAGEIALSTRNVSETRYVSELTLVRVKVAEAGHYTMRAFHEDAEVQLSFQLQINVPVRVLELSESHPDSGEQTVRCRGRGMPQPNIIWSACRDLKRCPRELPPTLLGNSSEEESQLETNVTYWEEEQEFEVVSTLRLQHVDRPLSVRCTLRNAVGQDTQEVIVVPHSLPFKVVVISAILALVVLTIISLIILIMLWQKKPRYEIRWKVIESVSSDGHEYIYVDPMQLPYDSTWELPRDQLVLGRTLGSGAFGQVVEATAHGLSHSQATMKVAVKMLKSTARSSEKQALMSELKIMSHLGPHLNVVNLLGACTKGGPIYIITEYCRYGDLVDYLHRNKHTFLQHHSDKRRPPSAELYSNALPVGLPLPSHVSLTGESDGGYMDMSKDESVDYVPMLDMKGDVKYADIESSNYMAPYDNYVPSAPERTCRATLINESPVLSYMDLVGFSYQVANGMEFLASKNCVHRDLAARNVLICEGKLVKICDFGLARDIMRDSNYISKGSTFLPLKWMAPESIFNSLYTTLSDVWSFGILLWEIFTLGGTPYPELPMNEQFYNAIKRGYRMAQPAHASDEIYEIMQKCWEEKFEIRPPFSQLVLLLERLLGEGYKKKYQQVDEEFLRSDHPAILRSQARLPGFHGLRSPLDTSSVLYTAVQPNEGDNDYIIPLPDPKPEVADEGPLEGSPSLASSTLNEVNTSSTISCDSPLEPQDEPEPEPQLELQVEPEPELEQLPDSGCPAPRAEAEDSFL

Assay [1] concerns COLO 205 cells. The experiment in a line: Annexin V-FITC/PI apoptosis assay by flow cytometry. The note with it: 72 h; for total apoptosis (early apoptosis and advanced apoptosis): mean of three independent determinations. It counts as cell-based. How it is done: Quantitative analysis of early-apoptotic cells, advanced-apoptotic cells and necrotic cells was determined. COLO 205 cells were stimulated with different concentrations of compound 10a for 72 h. […] The total apoptosis including early apoptosis and advanced apoptosis accounted for 58.8%, 29.3% and 21.0% (the mean value of three independent determinations) when COLO 205 cells were treated with compound 10a at the concentration of 1.0 μM, 0.33 μM and 0.11 μM, respectively.
COLO 205 cells (2.5 × 10^5) were seeded in two 12-well plates and treated with DMSO and compound 10a (0.11 μM, 0.33 μM and 1.0 μM) for 72 h (37 °C, 5% CO2). The cells were collected, centrifuged at 1000 rpm for 5 min, and then washed with cold PBS for twice. Apoptosis assays were conducted with CytoFLEX S (Beckman Coulter).
In general terms: Flow cytometry measures light scatter and fluorescence of single cells or particles in a stream.

For assay [2], the system named is COLO 205 cells. Kind of assay: Cell cycle arrest assay by flow cytometry. It counts as cell-based. The note with it: COLO 205, 0.33 μM and 0.11 μM, 24 h. How it is done: The antiproliferative activity of compound 10a was evaluated by flowcytometry analysis of COLO 205 cells. COLO 205 cells were treated with different concentrations (1.0 μM, 0.33 μM and 0.11 μM) of compound 10a for 24 h. […] At the concentration of 1.0 μM, cell cycle arrest could not be determined due to the massive dead cells (data not shown).
COLO 205 cells (2.5 × 10^5) were seeded in two 12-well plates and treated with DMSO and compound 10a (0.11 μM, 0.33 μM and 1.0 μM) for 24 h (37 °C, 5% CO2). Cells were collected, centrifuged at 1000 rpm for 5 min, washed with cold PBS for twice, and then fixed with 500 μL 75% cold ethanol at 4 °C. The cells were washed with cold PBS and stained with propidium iodide for 30 min in the dark. Cell-cycle analyses were conducted with Cytoflex S (Beckman Coulter).

The record followed here is publication PMC9448386, “Discovery of novel conjugates of quinoline and thiazolidinone urea as potential anti-colorectal cancer agent” (Journal of Enzyme Inhibition and Medicinal Chemistry, 2022).

One may read the IC50 as the concentration that inhibits the measured activity by half. With `COc1cc2c(Oc3ccc(NC(=O)NN4C(=O)CSC4c4c(F)cccc4F)cc3F)ccnc2cc1OC1CCN(CC(N)=O)CC1` (stereo not shown) [Compound 10a, 2–(4-((4–(4-(3–(2-(2,6-Difluorophenyl)-4-oxothiazolidin-3-yl)ureido)-2-fluorophenoxy)-6-methoxyquinolin-7-yl)oxy)piperidin-1-yl)acetamide], the IC50 is 0.87 ± 0.11 µM in the assay on HCT-116 cells and 1.13 ± 0.12 µM at PDGFRβ. The “total apoptosis (early apoptosis and advanced apoptosis)” value in the assay with COLO 205 cells [1] (COLO 205, 0.11 μM) is 21.0%; in the assay with COLO 205 cells [1] (COLO 205, 0.33 μM) it was 29.3%; in the assay on COLO 205 cells [1] (COLO 205, 1.0 μM) it was 58.8%. In addition, the induction of apoptosis result in the assay with COLO 205 cells [1] (COLO 205, 0.11–1.0 μM) is “could effectively induce COLO 205 cells apoptosis in a dose-dependent manner”. Also, the cell cycle arrest result in the assay on COLO 205 cells [2] is on record as “could not arrest the cell-cycle progression”.
